Experimental data reported in patent US11408022B2, “Preparation method of anti-oxidation polypeptide” (Fu Zhou University, priority 2018, dated 2022).
Where no end group is shown, it is not given here.

How the values were obtained:
Format in all cases: biochemical
[1] = ABTS radical elimination activity; settings: 1 mg/mL
Procedure: 7 mM ABTS mother solution and 2.45 mM potassium peroxydisulfate solution were respectively prepared and stored for later use. The two solutions were mixed in a ratio of 1:1 before use. The mixed solution was placed still at room temperature for 16 h, and then diluted with phosphate buffer solution (5 mM, 7.4 pH) to obtain an ABTS radical solution with absorbance of 0.70±0.02 at the wavelength of 734 nm. The ABTS radical solution was mixed with samples of different concentrations and equal volume; after 10 min reaction at room temperature, the absorbance of the mixtures was determined at the wavelength of 734 nm; and finally, the mixtures were zero-set using the phosphate buffer solution (5 mM, 7.4 pH). In the control group, distilled water was used to replace samples. The elimination rate of ABTS radicals of the sample was calculated using the following equation: […]
In the equation: • Acontrol—absorbance of the control group • Asample—absorbance of the sample

[2] = Oxygen radical absorption capacity
[3] = DPPH radical elimination activity; settings: 1 mg/mL
Procedure: 1 mL of the sample of different concentrations was respectively well mixed with 1 mL of DPPH solution ([…], prepared using 95% ethanol). The mixed solutions were kept still in shadow at room temperature for 30 min, and then the absorbance was determined at the wavelength of 517 nm. 1 mL of 95% ethanol solution in replacement of the DDPPH solution was used to prepare the sample reference group; and the control group included 1 mL of DPPH solution and 1 mL of 95% ethanol solution. The elimination rate of DPPH radicals of the sample was calculated using the following equation: […]
In the equation, • Ai—absorbance of the sample group • Aj—absorbance of the sample reference group • A0—absorbance of the control group

## GAAVAL [anti-oxidation polypeptide, hexapeptide isolated from alkali protease hydrolysate of black shark skins]
[1]
  Elimination rate of ABTS radicals: 64.12±0.20%
[2]
  Oxygen radical absorption capacity: 527.53±65.15 μmol Trolox/g peptide
[3]
  Elimination rate of DPPH radicals: 67.00±0.24%
